Two compounds from patent EP0289229A1, “Antiviral combinations” (THE WELLCOME FOUNDATION LIMITED, priority 1987, dated 1988) can be followed below.

The structures appear in SMILES notation.

For assay [1], the system named is herpes simplex type 1 (KOS strain). In words: Plaque reduction assay in Vero cells. Conditions: HSV-1 KOS, three days. Type of assay: cell-based. The procedure:
Antiviral activity was determined using a plaque reduction assay. Petri plates were seeded with Vero cells which were then allowed to grow to confluency. Each plate was then infected with a fixed number of plaque forming units (abut 100-500) of herpes simplex type 1 (KOS strain). The inhibitors, either alone or in the indicated combinations, were dissolved to give the indicated concentration in minimal essential medium containing 2% heat inactivated fetal calf serum and 0.5% human immune serum globulin: One hour after infection the solutions (10 ml per plate) were added to the cultures. Three days later the cultures were formalin-fixed and stained with crystal violet, and the plaques were counted.

The test system of assay [2] is Friend Leukemia Virus (FLV). Kind of assay: Anti-Friend Leukemia Virus plaque inhibition in FG-10 cells. It is filed as cell-based. The conditions noted are these: FG-10 cells infected with FLV; compound added one hour after infecting; 3 + 3 days incubation; read-out: IC50 (concentration giving 50% inhibition of plaques). The procedure: The enhancement of the Anti-Friend Leukemia Virus (FLV) activity of zidovudine by bacterial thymidine phosphorylase is shown in Table 1. FG-10 cells were used seeded on a plate one day before they were infected with FLV. One hour after infecting, known concentrations of the test compound or combination were added. The plates were incubated for 3 days, the media replaced with fresh McCoy's 5A media and incubated another 3 days.

Turning to `Nc1nc2c(ncn2COCCO)c(=O)[nH]1` [Acyclovir, 9-[(2-hydroxyethoxy)methyl]guanine], the “Average Plaque Count” value in assay [1] (Conc. 0.1 μM) stood at 316.5; in assay [1] (Conc. 0.25 μM) it was 298; in assay [1] (Conc. 0.5 μM), 290.5; in assay [1] (Conc. 1.0 μM), 230; in assay [1] (Conc. 2.5 μM) it was 182; in assay [1] (Conc. 5.0 μM) it was 88. Further, the “Average Plaque Count” value was 54 in assay [1] (Conc. 7.5 μM) and 34.5 in assay [1] (Conc. 10 μM). Further, the inhibition at 0.1 µM in assay [1] (Human alphaherpesvirus 1, 72 h, Conc. 0.1 μM) was 11.6%. The inhibition at 0.25 µM in assay [1] (Human alphaherpesvirus 1, 72 h, Conc. 0.25 μM) worked out at 16.7%. Also, the inhibition at 0.5 µM in assay [1] (Human alphaherpesvirus 1, 72 h, Conc. 0.5 μM) turned out to be 19%. The inhibition at 1 µM in assay [1] (Human alphaherpesvirus 1, 72 h, Conc. 1.0 μM) turned out to be 35.8%. Moreover, the inhibition at 2.5 µM in assay [1] (Human alphaherpesvirus 1, 72 h, Conc. 2.5 μM) was 49.2%. Moreover, the inhibition at 5 µM in assay [1] (Human alphaherpesvirus 1, 72 h, Conc. 5.0 μM) stood at 75.4%. Besides, the inhibition at 7.5 µM in assay [1] (Human alphaherpesvirus 1, 72 h, Conc. 7.5 μM) turned out to be 84.9%. In addition, the inhibition at 10 µM in assay [1] (Human alphaherpesvirus 1, 72 h, Conc. 10 μM) was 90.4%.

For the compound `Cc1cn([C@H]2C[C@H](N=[N+]=[N-])[C@@H](CO)O2)c(=O)[nH]c1=O` [Zidovudine, 3′-azido-3′-deoxythymidine], the IC50 in assay [2] was found to be 5 nM.

One may read the inhibition as the share of the control response that was lost under treatment.
